From ChEMBL document CHEMBL4382222, “Structural development of non-secosteroidal vitamin D receptor (VDR) ligands without any asymmetric carbon” (Bioorg Med Chem, 2018)

Experiments:
Vitamin D3 receptor = molecular target: T1, Vitamin D3 receptor (Homo sapiens, UniProt P11473); assay: Agonist activity at human VDR expressed in HOS cells co-expressing human RXR by Dual-Glo luciferase reporter gene assay; type: cell-based
T1 sequence (P11473 whole entry): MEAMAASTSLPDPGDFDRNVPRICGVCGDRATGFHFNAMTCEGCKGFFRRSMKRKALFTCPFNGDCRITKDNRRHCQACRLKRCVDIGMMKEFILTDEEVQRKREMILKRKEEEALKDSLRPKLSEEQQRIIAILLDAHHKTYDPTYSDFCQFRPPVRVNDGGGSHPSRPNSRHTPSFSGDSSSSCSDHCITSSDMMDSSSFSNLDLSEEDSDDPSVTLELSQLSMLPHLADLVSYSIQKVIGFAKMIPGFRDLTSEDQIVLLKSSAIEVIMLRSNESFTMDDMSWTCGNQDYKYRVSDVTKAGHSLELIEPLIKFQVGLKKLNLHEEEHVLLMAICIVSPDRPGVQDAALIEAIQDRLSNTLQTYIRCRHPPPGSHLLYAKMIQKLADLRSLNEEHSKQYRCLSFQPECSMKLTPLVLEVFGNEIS

[1] = molecular target: T2, Vitamin D3 receptor (Homo sapiens) (UniProt P11473); assay: Agonist activity at human VDR expressed in HOS cells co-expressing human RXR at 0.00001 to 10 uM by Dual-Glo luciferase reporter gene assay relative to 1alpha,25(OH)2D3; type: cell-based
T2 sequence (whole entry): T1 sequence (P11473 whole entry)

Compound	EC50 (Vitamin D3 receptor)	Emax [1]
CCC(CC)(c1ccc(OCC(CO)CO)c(C)c1)c1ccc(OCC(C)(C)O)c(C)c1	76.5 nM	91%
CCC(CC)(c1ccc(OC[C@@H](O)CO)c(C)c1)c1ccc(OCC(C)(C)O)c(C)c1	163 nM	67%
CCC(CC)(c1ccc(OCCC(C)(C)O)c(C)c1)c1ccc(OC[C@@H](O)CO)c(C)c1	41.7 nM	100%
CCC(CC)(c1ccc(OCCC(C)(C)O)c(C)c1)c1ccc(OCC(CO)CO)c(C)c1	76.9 nM	91%

These reach a lower EC50 (Vitamin D3 receptor). Values come first.

EC50 (Vitamin D3 receptor)	Emax [1]	Compound
17.2 nM	100%	CCC(O)(CC)COc1ccc(C(CC)(CC)c2ccc(OC(CO)CO)c(C)c2)cc1C
18 nM	90%	CCC(O)(CC)COc1ccc(C(CC)(CC)c2ccc(OC[C@@H](O)CO)c(C)c2)cc1C
9.26 nM	100%	CCC(O)(CC)COc1ccc(C(CC)(CC)c2ccc(OCC(CO)CO)c(C)c2)cc1C
